Tested on: MDA-MB-468
Assay: Antiproliferative activity against human MDA-MB-468 cells by SRB assay
Assay type: functional, cell-based

Structure (SMILES) | IC50 [µM]
COc1ccc(NC(=O)c2cc(-c3ccc4c(c3)OCO4)nc3ccccc23)cc1 | > 50
COC(=O)C1=C(NC(=O)c2cc(-c3ccccc3)nc3ccccc23)NC=CN1 | > 50
COc1ccc(NC(=O)c2cc(-c3cccc(C)c3)nc3ccccc23)cc1 | > 50
COc1cc(NC(=O)c2cc(-c3ccccc3)nc3ccc(Cl)cc23)cc(OC)c1OC | > 50
O=C(NC(Cc1ccccc1)C(=O)OCc1ccccc1)c1cc(-c2ccccc2)nc2ccccc12 (stereo unspecified) | > 50
COc1ccc(NC(=O)c2cc(-c3ccccc3)nc3ccc(Cl)cc23)c(C)c1 | > 50
COc1cc2c(c(OC)c1OC)-c1ccc(OC)c(=O)cc1[C@@H](NC(C)=O)CC2 [COLCHICINE] | 0.06
COc1ccc(NC(=O)c2cc(-c3ccc(C(F)(F)F)cc3)nc3ccccc23)c(C)c1 | > 50
COc1ccc(NC(=O)c2cc(-c3ccccc3C)nc3ccccc23)cc1 | > 50

Second part, the compound after the results:

IC50 [µM] | Structure (SMILES)
41.6 | COc1ccc(NC(=O)c2cc(-c3ccccc3C)nc3ccccc23)c(C)c1
32.1 | COc1ccc(NC(=O)c2cc(-c3cccc(C)c3)nc3ccccc23)c(C)c1
17.4 | COc1ccc(NC(=O)c2cc(-c3ccc(C)cc3)nc3ccccc23)c(C)c1
37.1 | COc1cc(NC(=O)c2cc(-c3ccc(C)cc3)nc3ccc(C)cc23)cc(OC)c1OC
18.9 | COc1cc(NC(=O)c2cc(-c3ccccc3)nc3ccccc23)cc(OC)c1OC
46.2 | Cc1cc(NC(=O)c2cc(-c3ccccc3)nc3ccccc23)no1
46.1 | COc1ccc(NC(=O)c2cc(-c3ccc(C)cc3)nc3ccc(C)cc23)c(C)c1

Tested on: HeLa
Assay: Antiproliferative activity against human HeLa cells by SRB assay
Assay type: functional, cell-based

Structure (SMILES) | IC50 [µM]
COc1ccc(NC(=O)c2cc(-c3ccc4c(c3)OCO4)nc3ccccc23)cc1 | > 50
COC(=O)C1=C(NC(=O)c2cc(-c3ccccc3)nc3ccccc23)NC=CN1 | 36.8
COc1ccc(NC(=O)c2cc(-c3cccc(C)c3)nc3ccccc23)cc1 | 30.2
COc1cc(NC(=O)c2cc(-c3ccccc3)nc3ccc(Cl)cc23)cc(OC)c1OC | > 50
O=C(NC(Cc1ccccc1)C(=O)OCc1ccccc1)c1cc(-c2ccccc2)nc2ccccc12 (stereo unspecified) | > 50
COc1ccc(NC(=O)c2cc(-c3ccccc3)nc3ccc(Cl)cc23)c(C)c1 | > 50
COc1cc2c(c(OC)c1OC)-c1ccc(OC)c(=O)cc1[C@@H](NC(C)=O)CC2 [COLCHICINE] | 0.5
COc1ccc(NC(=O)c2cc(-c3ccc(C(F)(F)F)cc3)nc3ccccc23)c(C)c1 | > 50
COc1ccc(NC(=O)c2cc(-c3ccccc3C)nc3ccccc23)cc1 | 42.8

Further lines, results first:

IC50 [µM] | Structure (SMILES)
> 50 | COc1ccc(NC(=O)c2cc(-c3ccccc3C)nc3ccccc23)c(C)c1
10.4 | COc1ccc(NC(=O)c2cc(-c3cccc(C)c3)nc3ccccc23)c(C)c1
9.5 | COc1ccc(NC(=O)c2cc(-c3ccc(C)cc3)nc3ccccc23)c(C)c1
13.5 | COc1cc(NC(=O)c2cc(-c3ccc(C)cc3)nc3ccc(C)cc23)cc(OC)c1OC
12.7 | COc1cc(NC(=O)c2cc(-c3ccccc3)nc3ccccc23)cc(OC)c1OC
> 50 | Cc1cc(NC(=O)c2cc(-c3ccccc3)nc3ccccc23)no1
20.4 | COc1ccc(NC(=O)c2cc(-c3ccc(C)cc3)nc3ccc(C)cc23)c(C)c1

Tested on: HCT-116
Assay: Antiproliferative activity against human HCT116 cells by SRB assay
Assay type: functional, cell-based

Structure (SMILES) | IC50 [µM]
COc1ccc(NC(=O)c2cc(-c3ccc4c(c3)OCO4)nc3ccccc23)cc1 | > 50
COC(=O)C1=C(NC(=O)c2cc(-c3ccccc3)nc3ccccc23)NC=CN1 | 29.5
COc1ccc(NC(=O)c2cc(-c3cccc(C)c3)nc3ccccc23)cc1 | 9.4
COc1cc(NC(=O)c2cc(-c3ccccc3)nc3ccc(Cl)cc23)cc(OC)c1OC | 36.4
O=C(NC(Cc1ccccc1)C(=O)OCc1ccccc1)c1cc(-c2ccccc2)nc2ccccc12 (stereo unspecified) | 36.1
COc1ccc(NC(=O)c2cc(-c3ccccc3)nc3ccc(Cl)cc23)c(C)c1 | 27.4
COc1cc2c(c(OC)c1OC)-c1ccc(OC)c(=O)cc1[C@@H](NC(C)=O)CC2 [COLCHICINE] | 0.01
COc1ccc(NC(=O)c2cc(-c3ccc(C(F)(F)F)cc3)nc3ccccc23)c(C)c1 | 47.3
COc1ccc(NC(=O)c2cc(-c3ccccc3C)nc3ccccc23)cc1 | 31.4

Next, values leading:

IC50 [µM] | Structure (SMILES)
43.6 | COc1ccc(NC(=O)c2cc(-c3ccccc3C)nc3ccccc23)c(C)c1
14.6 | COc1ccc(NC(=O)c2cc(-c3cccc(C)c3)nc3ccccc23)c(C)c1
1.7 | COc1ccc(NC(=O)c2cc(-c3ccc(C)cc3)nc3ccccc23)c(C)c1
5.2 | COc1cc(NC(=O)c2cc(-c3ccc(C)cc3)nc3ccc(C)cc23)cc(OC)c1OC
2.7 | COc1cc(NC(=O)c2cc(-c3ccccc3)nc3ccccc23)cc(OC)c1OC
25.8 | Cc1cc(NC(=O)c2cc(-c3ccccc3)nc3ccccc23)no1
11.9 | COc1ccc(NC(=O)c2cc(-c3ccc(C)cc3)nc3ccc(C)cc23)c(C)c1

Tested on: SK-OV-3
Assay: Antiproliferative activity against human SKOV3 cells by SRB assay
Assay type: functional, cell-based

Structure (SMILES) | IC50 [µM]
COc1ccc(NC(=O)c2cc(-c3ccc4c(c3)OCO4)nc3ccccc23)cc1 | 43.4
COC(=O)C1=C(NC(=O)c2cc(-c3ccccc3)nc3ccccc23)NC=CN1 | 38.9
COc1ccc(NC(=O)c2cc(-c3cccc(C)c3)nc3ccccc23)cc1 | 12.4
COc1cc(NC(=O)c2cc(-c3ccccc3)nc3ccc(Cl)cc23)cc(OC)c1OC | 24.1
O=C(NC(Cc1ccccc1)C(=O)OCc1ccccc1)c1cc(-c2ccccc2)nc2ccccc12 (stereo unspecified) | > 50
COc1ccc(NC(=O)c2cc(-c3ccccc3)nc3ccc(Cl)cc23)c(C)c1 | 34.2
COc1cc2c(c(OC)c1OC)-c1ccc(OC)c(=O)cc1[C@@H](NC(C)=O)CC2 [COLCHICINE] | 0.05
COc1ccc(NC(=O)c2cc(-c3ccc(C(F)(F)F)cc3)nc3ccccc23)c(C)c1 | > 50
COc1ccc(NC(=O)c2cc(-c3ccccc3C)nc3ccccc23)cc1 | 36.7

Results, then the compound that gave them:

IC50 [µM] | Structure (SMILES)
42.2 | COc1ccc(NC(=O)c2cc(-c3ccccc3C)nc3ccccc23)c(C)c1
15.3 | COc1ccc(NC(=O)c2cc(-c3cccc(C)c3)nc3ccccc23)c(C)c1
4.2 | COc1ccc(NC(=O)c2cc(-c3ccc(C)cc3)nc3ccccc23)c(C)c1
6.2 | COc1cc(NC(=O)c2cc(-c3ccc(C)cc3)nc3ccc(C)cc23)cc(OC)c1OC
5.4 | COc1cc(NC(=O)c2cc(-c3ccccc3)nc3ccccc23)cc(OC)c1OC
36.6 | Cc1cc(NC(=O)c2cc(-c3ccccc3)nc3ccccc23)no1
12.3 | COc1ccc(NC(=O)c2cc(-c3ccc(C)cc3)nc3ccc(C)cc23)c(C)c1

Tested on: A549
Assay: Antiproliferative activity against human A549 cells by SRB assay
Assay type: functional, cell-based

Structure (SMILES) | IC50 [µM]
COc1ccc(NC(=O)c2cc(-c3ccc4c(c3)OCO4)nc3ccccc23)cc1 | 46.3
COC(=O)C1=C(NC(=O)c2cc(-c3ccccc3)nc3ccccc23)NC=CN1 | > 50
COc1ccc(NC(=O)c2cc(-c3cccc(C)c3)nc3ccccc23)cc1 | 30.5
COc1cc(NC(=O)c2cc(-c3ccccc3)nc3ccc(Cl)cc23)cc(OC)c1OC | > 50
O=C(NC(Cc1ccccc1)C(=O)OCc1ccccc1)c1cc(-c2ccccc2)nc2ccccc12 (stereo unspecified) | > 50
COc1ccc(NC(=O)c2cc(-c3ccccc3)nc3ccc(Cl)cc23)c(C)c1 | > 50
COc1cc2c(c(OC)c1OC)-c1ccc(OC)c(=O)cc1[C@@H](NC(C)=O)CC2 [COLCHICINE] | 0.02
COc1ccc(NC(=O)c2cc(-c3ccc(C(F)(F)F)cc3)nc3ccccc23)c(C)c1 | > 50
COc1ccc(NC(=O)c2cc(-c3ccccc3C)nc3ccccc23)cc1 | > 50

More lines, now with the values ahead:

IC50 [µM] | Structure (SMILES)
45.7 | COc1ccc(NC(=O)c2cc(-c3ccccc3C)nc3ccccc23)c(C)c1
23.6 | COc1ccc(NC(=O)c2cc(-c3cccc(C)c3)nc3ccccc23)c(C)c1
11.6 | COc1ccc(NC(=O)c2cc(-c3ccc(C)cc3)nc3ccccc23)c(C)c1
20.3 | COc1cc(NC(=O)c2cc(-c3ccc(C)cc3)nc3ccc(C)cc23)cc(OC)c1OC
17.9 | COc1cc(NC(=O)c2cc(-c3ccccc3)nc3ccccc23)cc(OC)c1OC
37.9 | Cc1cc(NC(=O)c2cc(-c3ccccc3)nc3ccccc23)no1
30.1 | COc1ccc(NC(=O)c2cc(-c3ccc(C)cc3)nc3ccc(C)cc23)c(C)c1

Tested on: MRC5
Assay: Antiproliferative activity against human MRC5 cells by SRB assay
Assay type: cell-based

Structure (SMILES) | IC50 [µM]
COc1ccc(NC(=O)c2cc(-c3ccccc3C)nc3ccccc23)c(C)c1 | > 50
COc1ccc(NC(=O)c2cc(-c3ccc4c(c3)OCO4)nc3ccccc23)cc1 | > 50
COC(=O)C1=C(NC(=O)c2cc(-c3ccccc3)nc3ccccc23)NC=CN1 | > 50
COc1ccc(NC(=O)c2cc(-c3cccc(C)c3)nc3ccccc23)c(C)c1 | > 50
COc1ccc(NC(=O)c2cc(-c3cccc(C)c3)nc3ccccc23)cc1 | > 50
COc1ccc(NC(=O)c2cc(-c3ccc(C)cc3)nc3ccccc23)c(C)c1 | 48.1
COc1cc(NC(=O)c2cc(-c3ccccc3)nc3ccc(Cl)cc23)cc(OC)c1OC | > 50
COc1cc(NC(=O)c2cc(-c3ccc(C)cc3)nc3ccc(C)cc23)cc(OC)c1OC | 42.7
COc1cc(NC(=O)c2cc(-c3ccccc3)nc3ccccc23)cc(OC)c1OC | 38.8
O=C(NC(Cc1ccccc1)C(=O)OCc1ccccc1)c1cc(-c2ccccc2)nc2ccccc12 (stereo unspecified) | > 50
COc1ccc(NC(=O)c2cc(-c3ccccc3)nc3ccc(Cl)cc23)c(C)c1 | > 50
COc1cc2c(c(OC)c1OC)-c1ccc(OC)c(=O)cc1[C@@H](NC(C)=O)CC2 [COLCHICINE] | 0.09
Cc1cc(NC(=O)c2cc(-c3ccccc3)nc3ccccc23)no1 | > 50
COc1ccc(NC(=O)c2cc(-c3ccc(C(F)(F)F)cc3)nc3ccccc23)c(C)c1 | > 50
COc1ccc(NC(=O)c2cc(-c3ccc(C)cc3)nc3ccc(C)cc23)c(C)c1 | > 50
COc1ccc(NC(=O)c2cc(-c3ccccc3C)nc3ccccc23)cc1 | > 50

Reference: ChEMBL document CHEMBL4043270, “Design, synthesis and biological evaluation of 2-phenylquinoline-4-carboxamide derivatives as a new class of tubulin polymerization inhibitors” (Bioorg Med Chem, 2017)
